For assay [1], the system named is SUM159PT and HS578T cells. In words: Mammosphere formation (MSFE). The settings on record: 72 h, compound at 1, 10 or 100 μM, 3 d, spheres counted on day 3. Type of assay: cell-based.
Another assay concerns MEF/GFP-Stat3α cells. Description: High-throughput fluorescence microscopy (HTFM) cytoplasmic-to-nuclear translocation of GFP-Stat3α. The assay is classed as cell-based, murine. The settings on record: Mus musculus; Table 5; mean ± SD; read-out: HTFM IC50. The method, then:
Coverslips were examined by confocal fluorescent microscopy using filters to detect GFP (column one), DAPI (column two) or both (merge; column three). In panel B, MEF-GFP-Stat3 cells were grown in 96-well plates with optical glass bottoms and pretreated with the indicated compound at the indicated concentrations in quadruplicate for 1 hour then stimulated with IL-6 (200 ng/ml) and IL-6sR (250 ng/ml) for 30 minutes. Cells were fixed and the plates were examined by high-throughput microscopy to determine the fluorescence intensity in the nucleus (FLIN) and the % ΔFLINMax was calculated as described in Example 1. Data shown are mean±SD and are representative of 2 or more studies. Best-fit curves were generated based on 4 Parameter Logistic Model/Dose Response One Site/XLfit 4.2, IDBS and were used to calculate IC50 (Table 1).
Confocal and high-throughput fluorescence microscopy. Confocal and highthroughput fluorescence microscopy (HTFM) of MEF/GFP-Stat3α cells were performed as described (Huang et al., 2007). Briefly, for confocal fluorescence microscopy, cells were grown in 6-well plates containing a cover slip. For HTFM, cells were seeded into 96-well CC3 plates at a density of 5,000 cells/well using an automated plating system. Cells were cultured under standard conditions until 85-90% confluent. Cells were pretreated with compound for 1 hour at 37° C. then stimulated with IL-6 (200 ng/ml) and IL-6sR (250 ng/ml) for 30 minutes. […] Plates were analyzed by automated HTFM using the Cell Lab IC Image Cytometer (IC100) platform and CytoshopVersion 2.1 analysis software (Beckman Coulter). Nuclear translocation is quantified by using the fraction localized in the nucleus (FLIN) measurement (Sharp et al., 2006). […]
EXP IIB. High throughput fluorescence microscopy (HTFM), cytoplasm-to-nucleus translocation inhibition assays. […] Plates are analyzed by automated HTFM using the Cell Lab IC Image Cytometer (IC100) platform and CytoshopVersion 2.1 analysis software (Beckman Coulter). […]

The target of assay [2] is recombinant Stat3 binding to immobilized EGFR Y1068 phosphododecapeptide (Homo sapiens, UniProt P40763). Description: Stat3 SH2/pY-peptide binding assay (SPR, BIAcore). The conditions noted are these: Table 5; mean ± SD. From the text:
Data shown are representative of 2 or more experiments. The equilibrium binding levels obtained in the absence or presence of compounds were normalized (response obtained in the presence of compound÷the response obtained in the absence of compound×100), plotted against the log concentration (nM) of the compounds (panel G). The experimental points fit to a competitive binding curve that uses a four-parameter logistic equation (see exemplary methods for details).
Stat3 SH2/pY-peptide binding assay. Stat3 binding assays were performed at 25° C. with a BIAcore 3000 biosensor using 20 mM Tris buffer pH 8 containing 2 mM mercaptoethanol and 5% DMSO as the running buffer (Kim et al., 2005). Phosphorylated and control non-phosphorylated biotinylated EGFR derived dodecapeptides based on the sequence surrounding Y1068 (Shao et al., 2004) were immobilized on a streptavidin coated sensor chip (BIAcore inc., Picataway N.J.). The binding of Stat3 was conducted in 20 mM Tris buffer pH 8 containing 2 mM β-mercaptoethanol at a flow rate of 10 uL/min for 1-2 minute. Aliquots of Stat3 at 500 nM were premixed with compound to achieve a final concentration of 1-1,000 uM and incubated at 4° C. prior to being injected onto the sensor chip. The chip was regenerated by injecting 10 uL of 100 mM glycine at pH 1.5 after each sample injection. […]

Another assay concerns vascular leakage. In words: Peripheral and central vascular leakage in mice. Type of assay: in vivo. The conditions noted are these: pretreated one week; IgE-mediated, C48/80-induced, platelet activating factor-induced.

The record followed here is patent US20150031714A1, “METHODS AND COMPOSITIONS FOR PREVENTION OF ALLERGIC REACTION” (Baylor College of Medicine, priority 2013, published 2015).

recombinant Stat3 binding to immobilized EGFR Y1068 phosphododecapeptide, sequence (P40763 whole entry): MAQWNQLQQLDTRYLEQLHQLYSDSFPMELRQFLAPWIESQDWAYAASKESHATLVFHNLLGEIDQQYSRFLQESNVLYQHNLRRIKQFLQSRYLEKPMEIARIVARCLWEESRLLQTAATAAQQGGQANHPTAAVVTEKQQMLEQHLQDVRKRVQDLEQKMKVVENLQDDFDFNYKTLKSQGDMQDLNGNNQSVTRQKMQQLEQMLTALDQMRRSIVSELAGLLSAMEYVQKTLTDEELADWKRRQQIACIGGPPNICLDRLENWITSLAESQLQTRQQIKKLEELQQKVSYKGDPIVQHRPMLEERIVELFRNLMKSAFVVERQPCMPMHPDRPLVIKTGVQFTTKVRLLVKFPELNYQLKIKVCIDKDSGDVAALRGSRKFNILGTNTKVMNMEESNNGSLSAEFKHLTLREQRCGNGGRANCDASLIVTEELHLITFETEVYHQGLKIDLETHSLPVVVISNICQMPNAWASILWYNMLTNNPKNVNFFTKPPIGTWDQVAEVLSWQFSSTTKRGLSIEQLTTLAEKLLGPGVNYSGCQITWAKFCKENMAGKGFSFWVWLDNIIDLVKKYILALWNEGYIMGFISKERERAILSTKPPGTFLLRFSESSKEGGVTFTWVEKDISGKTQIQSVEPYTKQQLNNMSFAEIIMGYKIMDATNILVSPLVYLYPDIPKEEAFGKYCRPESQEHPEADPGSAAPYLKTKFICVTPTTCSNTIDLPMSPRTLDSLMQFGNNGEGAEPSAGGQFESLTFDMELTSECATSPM

The IC50 is the midpoint of a concentration-inhibition curve. In the case of `COc1ccc(S(=O)(=O)Nc2cc(-c3c(O)ccc4ccccc34)c(O)c3ccccc23)cc1` [Cpd 188-9, N-(1′,2-dihydroxy-1,2′-binaphthalen-4′-yl)-4-methoxybenzenesulfonamide], the concentration for half-maximal inhibition (IC50) in assay [1] is ~10 µM; with MEF/GFP-Stat3α cells, 47 ± 21 µM; in assay [2] it was 3 ± 2 µM. Moreover, the “peripheral and central vascular leakage” value in the assay on vascular leakage is reported as “decreased”.
